US20240002344A1, “COMPOUNDS, COMPOSITIONS AND METHODS FOR HISTONE LYSINE DEMETHYLASE INHIBITION” (FibroGen, Inc., priority 2020, published 2024)

Legend:
recombinant human KDM5B = target: T1, recombinant human KDM5B (Homo sapiens, UniProt Q9UGL1); assay: 14CO2 capture enzymatic assay (decarboxylation of [1-14C] αKG), KDM5B; type: biochemical; settings: 10 μM [1-14C] αKG, 90 μM non-labeled αKG, 50 μM peptide substrate, 37° C., 1 hour, final 1% DMSO
T1 sequence (Q9UGL1 374-755 limits assumed): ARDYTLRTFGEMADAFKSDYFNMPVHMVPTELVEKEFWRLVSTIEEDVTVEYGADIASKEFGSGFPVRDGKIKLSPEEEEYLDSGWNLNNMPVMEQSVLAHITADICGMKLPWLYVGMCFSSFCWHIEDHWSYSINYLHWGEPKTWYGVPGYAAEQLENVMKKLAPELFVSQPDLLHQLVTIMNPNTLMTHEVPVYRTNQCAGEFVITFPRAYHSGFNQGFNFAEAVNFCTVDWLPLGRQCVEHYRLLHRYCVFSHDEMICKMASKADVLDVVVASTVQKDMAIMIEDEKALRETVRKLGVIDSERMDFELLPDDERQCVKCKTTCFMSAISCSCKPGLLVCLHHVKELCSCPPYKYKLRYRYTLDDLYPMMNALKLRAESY
Summary of the method: (§1)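 Truncated recombinant human KDM5B (H3K4me3 peptide) or KDM4A (H3K9me3 peptide), 50 μM peptide, with 10 μM [1-14C]αKG plus 90 μM unlabeled αKG, 10 μM Fe(SO4), 2 mM ascorbate in pH 7.4 HEPES, 1 h at 37 °C, 1% DMSO. Released 14CO2 trapped on Ba(OH)2 filter; IC50 by non-linear fit.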

recombinant human KDM4A = target: T2, recombinant human KDM4A (Homo sapiens, UniProt O75164); assay: 14CO2 capture enzymatic assay (decarboxylation of [1-14C] αKG), KDM4A; type: biochemical; settings: 10 μM [1-14C] αKG, 90 μM non-labeled αKG, 50 μM peptide substrate, 37° C., 1 hour, final 1% DMSO
T2 construct: made in house
T2 sequence (O75164 1-359 limits assumed): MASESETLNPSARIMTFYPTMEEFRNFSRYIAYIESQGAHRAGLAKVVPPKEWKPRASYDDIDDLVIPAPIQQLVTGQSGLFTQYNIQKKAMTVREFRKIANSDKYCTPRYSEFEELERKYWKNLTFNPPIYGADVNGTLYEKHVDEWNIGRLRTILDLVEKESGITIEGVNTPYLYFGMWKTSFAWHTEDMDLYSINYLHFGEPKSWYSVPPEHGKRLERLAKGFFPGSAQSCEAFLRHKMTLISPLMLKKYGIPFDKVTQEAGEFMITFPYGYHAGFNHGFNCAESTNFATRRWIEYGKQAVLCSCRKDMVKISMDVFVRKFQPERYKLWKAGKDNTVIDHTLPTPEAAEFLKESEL
Summary of the method: as §1

| IC50 (recombinant human KDM5B) | IC50 (recombinant human KDM4A) | Compound |
| --- | --- | --- |
| 380 nM | > 40000 nM | N#Cc1cc(NC(=O)c2c(Cl)cccc2Cl)nc(C(=O)CCC(=O)O)c1O [Example 128, 4-[4-Cyano-6-(2,6-dichloro-benzoylamino)-3-hydroxy-pyridin-2-yl]-4-oxo-butyric acid] |
| 450 nM | > 40000 nM | Cc1cc(F)ccc1-c1cc(C#N)c(O)c(C(=O)CCC(=O)O)n1 [Example 86, 4-[4-Cyano-6-(4-fluoro-2-methyl-phenyl)-3-hydroxy-pyridin-2-yl]-4-oxo-butyric acid] |
| 710 nM | > 40000 nM | Cc1cccc(F)c1-c1cc(C#N)c(O)c(C(=O)CCC(=O)O)n1 [Example 88, 4-[4-Cyano-6-(2-fluoro-6-methyl-phenyl)-3-hydroxy-pyridin-2-yl]-4-oxo-butyric acid] |
| 310 nM | > 40000 nM | Cc1c(Cl)cccc1-c1cc(C#N)c(O)c(C(=O)CCC(=O)O)n1 [Example 89, 4-[6-(3-Chloro-2-methyl-phenyl)-4-cyano-3-hydroxy-pyridin-2-yl]-4-oxo-butyric acid] |
| 390 nM | > 40000 nM | Cc1c(F)cccc1-c1cc(C#N)c(O)c(C(=O)CCC(=O)O)n1 [Example 80, 4-[4-Cyano-6-(3-fluoro-2-methyl-phenyl)-3-hydroxy-pyridin-2-yl]-4-oxo-butyric acid] |
| 560 nM | > 40000 nM | Cc1cccc(C)c1C(=O)Nc1cc(C#N)c(O)c(C(=O)CCC(=O)O)n1 [Example 129, 4-[4-Cyano-6-(2,6-dimethyl-benzoylamino)-3-hydroxy-pyridin-2-yl]-4-oxo-butyric acid] |
| 310 nM | > 40000 nM | Cc1ccccc1-c1cc(C#N)c(O)c(C(=O)CCC(=O)O)n1 [Example 71, 4-(4-Cyano-3-hydroxy-6-o-tolyl-pyridin-2-yl)-4-oxo-butyric acid] |
| 350 nM | > 40000 nM | Cc1ccc(F)cc1-c1cc(C#N)c(O)c(C(=O)CCC(=O)O)n1 [Example 82, 4-[4-Cyano-6-(5-fluoro-2-methyl-phenyl)-3-hydroxy-pyridin-2-yl]-4-oxo-butyric acid] |
| 70 nM | 3700 nM | Cc1ccccc1Cc1cc(C#N)c(O)c(C(=O)CCC(=O)O)n1 [Example 36, 4-[4-Cyano-3-hydroxy-6-(2-methyl-benzyl)-pyridin-2-yl]-4-oxo-butyric acid] |

The next lines start with the compound.

| Compound | IC50 (recombinant human KDM5B) | IC50 (recombinant human KDM4A) |
| --- | --- | --- |
| N#Cc1cc(-c2ccc3ccccc3c2)nc(C(=O)CCC(=O)O)c1O [Example 77, 4-(4-Cyano-3-hydroxy-6-naphthalen-2-yl-pyridin-2-yl)-4-oxo-butyric acid] | 40 nM | 12000 nM |
| N#Cc1cc(Cc2ccccc2Cc2ccccc2)nc(C(=O)CCC(=O)O)c1O [Example 146, 4-[6-(2-Benzyl-benzyl)-4-cyano-3-hydroxy-pyridin-2-yl]-4-oxo-butyric acid] | 140 nM | 39000 nM |
| N#Cc1cc(Cc2c(Cl)cccc2C#N)nc(C(=O)CCC(=O)O)c1O [Example 58, 4-[6-(2-Chloro-6-cyano-benzyl)-4-cyano-3-hydroxy-pyridin-2-yl]-4-oxo-butyric acid] | 180 nM | 16000 nM |
| N#Cc1cc(Cc2ccccc2)nc(C(=O)CCC(=O)O)c1O [Example 10, 4-(6-Benzyl-4-cyano-3-hydroxy-pyridin-2-yl)-4-oxo-butyric acid] | 160 nM | > 40000 nM |
| N#Cc1cc(Oc2ccc(F)cc2)nc(C(=O)CCC(=O)O)c1O [Example 79, 4-[4-Cyano-6-(4-fluoro-phenoxy)-3-hydroxy-pyridin-2-yl]-4-oxo-butyric acid] | 230 nM | > 40000 nM |
| N#Cc1cc(-c2ccc(-c3ccccc3)cc2)nc(C(=O)CCC(=O)O)c1O [Example 75, 4-(6-Biphenyl-4-yl-4-cyano-3-hydroxy-pyridin-2-yl)-4-oxo-butyric acid] | 90 nM | 20000 nM |
| N#Cc1cc(Cc2ccc(-c3ccccc3)cc2)nc(C(=O)CCC(=O)O)c1O [Example 50, 4-(6-Biphenyl-4-ylmethyl-4-cyano-3-hydroxy-pyridin-2-yl)-4-oxo-butyric acid] | 390 nM | > 40000 nM |
| N#Cc1cc(Sc2ccccc2)nc(C(=O)CCC(=O)O)c1O [Example 78, 4-(4-Cyano-3-hydroxy-6-phenylsulfanyl-pyridin-2-yl)-4-oxo-butyric acid] | 90 nM | > 40000 nM |
| N#Cc1cc(-c2ccccc2F)nc(C(=O)CCC(=O)O)c1O [Example 69, 4-[4-Cyano-6-(2-fluoro-phenyl)-3-hydroxy-pyridin-2-yl]-4-oxo-butyric acid] | 150 nM | > 40000 nM |
| Cc1noc(C)c1Cc1cc(C#N)c(O)c(C(=O)CCC(=O)O)n1 [Example 154, 4-[4-Cyano-6-(3,5-dimethyl-isoxazol-4-ylmethyl)-3-hydroxy-pyridin-2-yl]-4-oxo-butyric acid] | 260 nM | 1400 nM |
| N#Cc1cc(C(F)(F)F)c(O)c(C(=O)CCC(=O)O)n1 [Example 8, 4-(6-Cyano-3-hydroxy-4-trifluoromethyl-pyridin-2-yl)-4-oxo-butyric acid] | 270 nM | 13000 nM |
| N#Cc1cc(-c2ccc(Cl)c3ccccc23)nc(C(=O)CCC(=O)O)c1O [Example 110, 4-[6-(4-Chloro-naphthalen-1-yl)-4-cyano-3-hydroxy-pyridin-2-yl]-4-oxo-butyric acid] | 270 nM | > 40000 nM |
| N#Cc1cc(CCc2ccccc2)cc(C(=O)CCC(=O)O)c1O [Example 135, 4-(3-Cyano-2-hydroxy-5-phenethyl-phenyl)-4-oxo-butyric acid] | 370 nM | > 40000 nM |
| N#Cc1cc(Cc2ccc(OC(F)(F)F)cc2)nc(C(=O)CCC(=O)O)c1O [Example 47, 4-[4-Cyano-3-hydroxy-6-(4-trifluoromethoxy-benzyl)-pyridin-2-yl]-4-oxo-butyric acid] | 300 nM | > 40000 nM |
| N#Cc1cc(-c2ccccc2)nc(C(=O)CCC(=O)O)c1O [Example 7, 4-(4-Cyano-3-hydroxy-6-phenyl-pyridin-2-yl)-4-oxo-butyric acid] | 210 nM | > 40000 nM |
| N#Cc1cc(-c2cccc(C(F)(F)F)c2Cl)nc(C(=O)CCC(=O)O)c1O [Example 103, 4-[6-(2-Chloro-3-trifluoromethyl-phenyl)-4-cyano-3-hydroxy-pyridin-2-yl]-4-oxo-butyric acid] | 380 nM | > 40000 nM |
| N#Cc1cc(Cc2c(F)ccc(Cl)c2F)nc(C(=O)CCC(=O)O)c1O [Example 56, 4-[6-(3-Chloro-2,6-difluoro-benzyl)-4-cyano-3-hydroxy-pyridin-2-yl]-4-oxo-butyric acid] | 290 nM | > 40000 nM |
| N#Cc1cc(Cc2cc(Cl)cc(Cl)c2)nc(C(=O)CCC(=O)O)c1O [Example 31, 4-[4-Cyano-6-(3,5-dichloro-benzyl)-3-hydroxy-pyridin-2-yl]-4-oxo-butyric acid] | 230 nM | > 40000 nM |
| N#Cc1cc(-c2ccccc2Cl)nc(C(=O)CCC(=O)O)c1O [Example 70, 4-[6-(2-Chloro-phenyl)-4-cyano-3-hydroxy-pyridin-2-yl]-4-oxo-butyric acid] | 300 nM | > 40000 nM |
| COc1cccc(-c2cc(C#N)c(O)c(C(=O)CCC(=O)O)n2)c1Cl [Example 114, 4-[6-(2-Chloro-3-methoxy-phenyl)-4-cyano-3-hydroxy-pyridin-2-yl]-4-oxo-butyric acid] | 140 nM | 10000 nM |
